pIC50, pKi: −log10 of the molar value. Starred links: 1 amine or outer side, 2 acyl side, 3 side chain; linkers in the order of their positions; H or OH if unused. Non-standard residues stand in square brackets, D forms with d. Residues, ends and D or L forms follow the SMILES beside them. *: point of attachment. Arg(ψCOCO) = N=C(N)NCCC[C@H](N[*:1])C(=O)C(=O)[*:2]; Nle = CCCC[C@H](N)C(=O)O; PhAc = O=C(Cc1ccccc1)*; Bz = O=C(c1ccccc1)*
How the values were obtained:
[1] = Inhibition of DENV2 NS2B-G4-S-G4-NS3 protease using Bz-nKRR-AMC as substrate preincubated for 30 mins followed by substrate addition by fluorescence microplate reader assay; set-up: species or system dengue virus type 2
[2] = Inhibition of DENV2 recombinant NS2B-NS3 protease expressed in Escherichia coli JM109 using acetyl-TTSTRR-para-nitroaniline as substrate preincubated for 10 mins followed by substrate addition measured after 120 mins by spectrophotometric analysis; set-up: species or system dengue virus type 2
[3] = Inhibition of DENV1 N-terminally hexa-His tagged NS2B (48 to 95 residues) -NS3 (1 to 184 residues) protease expressed in Escherichia coli XL1 Blue using QXL570-Phe-Ala-Ser-Gly-Lys-Arg-Ser-Gln-Ile-Gly-Leu-Lys(5-TAMRA)-NH2 as substrate and measured for 15 mins by FRET assay; set-up: species or system dengue virus type 1
[4] = Inhibition of DENV3 N-terminally hexa-His tagged NS2B (48 to 95 residues) -NS3 (1 to 184 residues) protease expressed in Escherichia coli XL1 Blue using QXL570-Phe-Ala-Ser-Gly-Lys-Arg-Ser-Gln-Ile-Gly-Leu-Lys(5-TAMRA)-NH2 as substrate and measured for 15 mins by FRET assay; set-up: species or system dengue virus type 3
[5] = Inhibition of DENV2 N-terminally hexa-His tagged NS2B (48 to 95 residues) -NS3 (1 to 184 residues) protease expressed in Escherichia coli XL1 Blue using QXL570-Phe-Ala-Ser-Gly-Lys-Arg-Ser-Gln-Ile-Gly-Leu-Lys(5-TAMRA)-NH2 as substrate and measured for 15 mins by FRET assay; set-up: species or system dengue virus type 2
[6] = Inhibition of DENV4 N-terminally hexa-His tagged NS2B (48 to 95 residues) -NS3 (1 to 184 residues) protease expressed in Escherichia coli XL1 Blue using QXL570-Phe-Ala-Ser-Gly-Lys-Arg-Ser-Gln-Ile-Gly-Leu-Lys(5-TAMRA)-NH2 as substrate and measured for 15 mins by FRET assay; set-up: species or system dengue virus type 4
[7] = Inhibition of DENV2 hydrophilic domain of NS2B (48 aminoacids)-NS3 (185 aminoacids) protease using Bz-Nle-Lys-Arg-Arg-AMC as substrate preincubated for 15 mins followed by substrate addition by spectrofluorometeric assay; set-up: species or system dengue virus type 2
[8] = Inhibition of DENV2 recombinant CF40gly(T)R fused NS2B-NS3 protease expressed in Escherichia coli XL1-Blue MRF using Boc-Gly-Arg-Arg-MCA as substrate incubated for 30 mins by fluorescence spectrophotometeric assay; set-up: species or system dengue virus type 2
[9] = Inhibition of DENV2 NS2B-NS3 protease expressed in Escherichia coli BL21 (DE3) using Bz-Nle-Lys-Arg-Arg-AMC as substrate preincubated for 30 mins followed by substrate addition by fluorescence plate reader analysis; set-up: species or system dengue virus type 2
[10] = Inhibition of DENV2 recombinant NS2B-NS3 protease expressed in Escherichia coli C41 using GRR-AMC as substrate incubated for 15 mins by Lineweaver-Burk plot analysis; set-up: species or system dengue virus type 2
[11] = Inhibition of DENV2 recombinant CF40-glycine fused NS2B-NS3 protease expressed in Escherichia coli SG13009 using Ac-TTSTRR-pNA as substrate preincubated for 50 mins followed by substrate addition by spectrophotometric assay; set-up: species or system dengue virus type 2
[12] = Inhibition of DENV2 recombinant NS2B-(G4-S-G4)-NS3 protease using Bz-nKRR-AMC as substrate preincubated for 30 mins followed by substrate addition measured after 30 mins by fluorescence spectrophotometric analysis; set-up: species or system dengue virus type 2

N#Cc1ccc(OC(=O)c2ccc(NC(=N)N)cc2)cc1
pIC50 [1]: 4.42

CCN1/C(=C/C=C/c2oc3ccc4ccccc4c3[n+]2CC)Oc2ccc3ccccc3c21
pIC50 [2]: 4.57

N=C(N)Nc1ccc(OC(=O)c2ccc(NC(=N)N)cc2)cc1
pIC50 [1]: 5.11

Cc1cc(NC(=O)O[C@@H]2C[C@H](Oc3ccc(NC(=N)N)cc3N=C(N)N)[C@@H](N=C(N)N)C[C@H]2N=C(N)N)ccc1F
pIC50 [3]: 5.59 | pIC50 [4]: 5.09 | pIC50 [5]: 5.15 | pIC50 [6]: 4.68

N=C(N)Nc1ccc(NC(=O)O[C@H]2C[C@@H](OC(=O)Nc3ccc(NC(=N)N)cc3)[C@H](NC(=N)N)C[C@@H]2NC(=N)N)cc1
pIC50 [3]: 4.99 | pIC50 [4]: 4.74 | pIC50 [5]: 4.77 | pIC50 [6]: 4.16

O=C(Nc1nc2cc(O)c(O)cc2s1)c1ccccc1Sc1ccc(C(F)(F)F)cc1
pIC50 [2]: 5.44

O=C(Nc1cccs1)c1ccccc1Sc1ccc([N+](=O)[O-])cc1
pIC50 [2]: 4.01

N=C(N)Nc1ccc(O[C@H]2C[C@@H](Oc3ccc(NC(=N)N)cc3)[C@H](NC(=N)N)C[C@@H]2NC(=N)N)cc1
pIC50 [3]: 5.30 | pIC50 [4]: 5.05 | pIC50 [5]: 4.96 | pIC50 [6]: 4.70

N=C(N)Nc1ccccc1O[C@H]1C[C@@H](Oc2ccccc2NC(=N)N)[C@H](NC(=N)N)C[C@@H]1NC(=N)N
pIC50 [3]: 5.06 | pIC50 [4]: 4.77 | pIC50 [5]: 4.49 | pIC50 [6]: 4.26

N=C(N)Nc1ccc(N[C@H]2C[C@@H](NC(=N)N)[C@H](Oc3ccc(NC(=N)N)cc3)C[C@@H]2Oc2ccc(NC(=N)N)cc2)cc1
pIC50 [3]: 5.28 | pIC50 [4]: 5.40 | pIC50 [5]: 5.00 | pIC50 [6]: 4.91

O=C(Nc1nc2ccc([N+](=O)[O-])cc2s1)c1ccccc1Sc1ccc(C(F)(F)F)cc1
pIC50 [2]: 4.66

O=C(Nc1nc2ccc([N+](=O)[O-])cc2s1)c1ccccc1Sc1ccc([N+](=O)[O-])cc1
pIC50 [2]: 4.47

Oc1c(C(Cc2nccs2)c2ccccc2OCc2ccccc2)ccc2ccccc12 (configuration not stated)
pIC50 [7]: 5.63

Oc1c(C(Cc2nccs2)c2cccc(OCc3ccccc3)c2)ccc2ccccc12 (configuration not stated)
pIC50 [7]: 5.53

c1ccc([C@H]2Oc3ccccc3[C@@H]3Oc4ccccc4C[C@H]23)cc1
pKi [8]: 3.29

Oc1c(C(Cc2nc3ccccc3s2)c2ccccc2OCc2ccccc2)ccc2ccccc12 (configuration not stated)
pIC50 [7]: 5.44

N=C(N)Nc1ccc(O[C@H]2C[C@@H](O)[C@H](NC(=N)N)C[C@@H]2NC(=N)N)c(NC(=N)N)c1
pIC50 [3]: 5.01 | pIC50 [4]: 4.70 | pIC50 [5]: 4.82 | pIC50 [6]: 4.24

N=C(N)Nc1ccc(O[C@H]2C[C@H](F)[C@H](NC(=N)N)C[C@@H]2NC(=N)N)c(NC(=N)N)c1
pIC50 [3]: 5.06 | pIC50 [4]: 4.76 | pIC50 [5]: 4.69 | pIC50 [6]: 4.28

c1ccc2[nH]c(-c3ccc(Nc4nnc(Nc5ccc(-c6nc7ccccc7[nH]6)cc5)c5ccccc45)cc3)nc2c1
pIC50 [9]: 5.96

N=C(N)Nc1cc(NC(=N)N)c2ccccc2c1O[C@H]1C[C@@H](O)[C@H](NC(=N)N)C[C@@H]1NC(=N)N
pIC50 [3]: 5.10 | pIC50 [4]: 5.07 | pIC50 [5]: 5.22 | pIC50 [6]: 4.47

CCCCCCCCCC[N+](CC)(CC)CCOc1ccc2c(c1)C(=O)c1cc(OCC[N+](CC)(CC)CCCCCCCCCC)ccc1-2
pIC50 [2]: 4.81

O=C1C[C@@H](c2ccc3c(c2)OCCO3)Oc2ccccc21
pKi [8]: 3.73

O=c1cc(-c2ccccc2)oc2ccc(-c3nnn[nH]3)cc12
pKi [8]: 4.16

Oc1c(C(Cc2nc3ccccc3s2)c2cccc(OCc3ccccc3)c2)ccc2ccccc12 (configuration not stated)
pIC50 [7]: 6.04

Cc1cc(C)c2c(c1)O[C@@H](c1ccc(N(C)C)cc1)CC2=O
pKi [8]: 3.92

Cc1[nH]c2ccccc2c1C(=O)NCc1ccc(CN2CCCC2)cc1
pIC50 [1]: 3.52

CC1CNC(c2ccc(Nc3nnc(Nc4ccc(C5=NC(C)CN5)cc4)c4ccccc34)cc2)=N1 (configuration not stated)
pIC50 [9]: 5.05

CCN1/C(=C/C=C/c2oc3ccc(-c4ccccc4)cc3[n+]2CC)Oc2ccc(-c3ccccc3)cc21
pIC50 [2]: 4.69

CC(=O)N[C@@H](CCC(=O)O)C(=O)N[C@H](C(=O)N[C@@H](CCCCN)C(=O)N[C@@H](CCCCN)C(=O)N[C@@H](CCC(N)=O)C(=O)N[C@@H](CCCNC(=N)N)C(N)=O)C(C)C (Ac-EVKKQR-NH2)
pKi [10]: 4.18

CC(=O)N[C@@H](Cc1ccccc1)C(=O)N[C@@H](C)C(=O)N[C@@H](C)C(=O)NCC(=O)N[C@@H](CCCNC(=N)N)C(=O)N[C@@H](CCCCN)C(N)=O (Ac-FAAGRK-NH2)
pKi [10]: 4.59

CC(=O)N[C@@H](Cc1ccccc1)C(=O)N[C@@H](C)C(=O)N[C@@H](C)C(=O)NCC(=O)N[C@@H](CCCNC(=N)N)C(=O)N[C@H](C=O)CCCNC(=N)N (Ac-FAAGRR-aldehyde)
pKi [11]: 4.80

CC(=O)N[C@@H](Cc1ccccc1)C(=O)N[C@@H](C)C(=O)N[C@@H](C)C(=O)NCC(=O)N[C@@H](CCCNC(=N)N)C(=O)N[C@@H](CCCNC(=N)N)C(=O)C(=O)N[C@@H](CO)C(=O)N[C@@H](CC(C)C)C(N)=O (Ac-FAAGR[Arg(ψCOCO)]SL-NH2)
pKi [11]: 4.33

CC(=O)NCC(=O)N[C@@H](CCCCN)C(=O)N[C@@H](CCCNC(=N)N)C(N)=O (Ac-Gly-Lys-Arg-NH2)
pKi [10]: 3.82

CC(=O)N[C@@H](CCCCN)C(=O)N[C@@H](CCCNC(=N)N)C(N)=O (Ac-Lys-Arg-NH2)
pKi [10]: 3.92

CC(=O)N[C@@H](CCCCN)C(=O)N[C@@H](CCCCN)C(=O)N[C@@H](CCCNC(=N)N)C(N)=O (Ac-Lys-Lys-Arg-NH2)
pKi [10]: 4.65

CC(=O)N[C@@H](CCCNC(=N)N)C(=O)N[C@H](C(=O)N[C@@H](CO)C(=O)N[C@@H](CCCCN)C(=O)N[C@@H](CCCCN)C(=O)N[C@@H](CCCNC(=N)N)C(N)=O)[C@@H](C)O (Ac-RTSKKR-NH2)
pKi [10]: 4.92

CC(=O)N[C@@H](CO)C(=O)N[C@@H](CCCCN)C(=O)N[C@@H](CCCCN)C(=O)N[C@@H](CCCNC(=N)N)C(N)=O (Ac-SKKR-NH2)
pKi [10]: 3.73

CC(=O)N[C@H](C(=O)N[C@H](C(=O)N[C@@H](CO)C(=O)N[C@H](C(=O)N[C@@H](CCCNC(=N)N)C(=O)N[C@@H](CCCNC(=N)N)C(N)=O)[C@@H](C)O)[C@@H](C)O)[C@@H](C)O (Ac-TTSTRR-NH2)
pKi [10]: 4.34

CC(=O)N[C@H](C(=O)N[C@H](C(=O)N[C@@H](CO)C(=O)N[C@H](C(=O)N[C@@H](CCCNC(=N)N)C(=O)N[C@@H](CCCNC(=N)N)C(=O)C(=O)NCC(=O)N[C@H](C(=O)NCC(=O)N[C@@H](CC(N)=O)C(N)=O)[C@@H](C)O)[C@@H](C)O)[C@@H](C)O)[C@@H](C)O (Ac-TTSTR[Arg(ψCOCO)]GTGN-NH2)
pKi [11]: 3.43

CC(=O)N[C@H](C(=O)N[C@H](C(=O)N[C@@H](CO)C(=O)N[C@H](C(=O)N[C@@H](CCCNC(=N)N)C(=O)N[C@@H](CCCNC(=N)N)C(=O)C(=O)N[C@@H](CO)C(=O)N[C@@H](CC(C)C)C(N)=O)[C@@H](C)O)[C@@H](C)O)[C@@H](C)O (Ac-TTSTR[Arg(ψCOCO)]SL-NH2)
pKi [11]: 3.66

CCCC[C@H](NC(=O)c1ccccc1)C(=O)N[C@@H](CCCCN)C(=O)N[C@@H](CCCNC(=N)N)C(=O)N[C@H](C=O)CCCNC(=N)N (Bz-[Nle]KRR-aldehyde)
pIC50 [12]: 5.02

N=C(N)NCCC[C@@H](C=O)NC(=O)[C@H](CCCNC(=N)N)NC(=O)[C@H](CCCCN)NC(=O)Cc1ccccc1 (PhAc-Lys-Arg-Arg-aldehyde)
pIC50 [12]: 5.17

N=C(N)NCCC[C@@H](C=O)NC(=O)[C@H](CCCCN)NC(=O)[C@H](CCCCN)NC(=O)Cc1ccccc1 (PhAc-Lys-Lys-Arg-aldehyde)
pIC50 [12]: 3.78

— ChEMBL document CHEMBL5257026, “Progress and prospects on DENV protease inhibitors” (Eur J Med Chem, 2016)
